Source: patent publication US20220177538A1, “CO-AGONISTS AT GLP-1 AND GIP RECEPTORS SUITABLE FOR ORAL DELIVERY” (Novo Nordisk A/S, priority 2020, published 2022)
Starred links: 1 amine or outer side, 2 acyl side, 3 side chain; linkers in the order of their positions; H or OH if unused. Non-standard residues stand in square brackets, D forms with d. Residues, ends and D or L forms follow the SMILES beside them. Groups on a side chain read outwards from the residue. *: point of attachment. C18 diacid = O=C(O)CCCCCCCCCCCCCCCCC(=O)*; γGlu = O=C(O)[C@H](CCC(=O)[*:2])N[*:1]; εLys = N[C@@H](CCCCN[*:1])C(=O)[*:2]; AEEA = NCCOCCOCC(=O)O; Aib = CC(C)(N)C(=O)O

Assay: Pharmacokinetic study in dogs after oral dosing of tablets with SNAC
Format: in vivo, Beagle dogs
Procedure: The purpose of this example is to determine the half-life and plasma exposure in vivo of the compounds of the present invention after p.o. administration to beagle dogs, i.e. the terminal half-life and concentration of test substance that reaches circulation with time. This is done in a pharmacokinetic (PK) study, where these parameters of the compound in question are determined. By terminal half-life is generally meant the period of time it takes to halve a certain plasma concentration, measured after the initial distribution phase.
The amount of SNAC in the tablet composition was 100-300 mg, the amount of magnesium stearate in the tablet composition was 7.7 mg, and the target amount of each test substance in the tablet composition was 3-4 mg.
Male beagle dogs, 1-7 years of age and weighing 9-17 kg during the study period, were included in the study. The dogs were dosed in a fasting state. The dogs were group housed in pens (12 hours light: 12 hours dark), and fed individually and restrictedly once daily with Royal Canin Medium Adult dog food (Royal Canin Products, China Branch, or Brogaarden A/S, Denmark). The dogs were used for repeated PK studies with a suitable wash-out period between successive dosing. An appropriate acclimatization period was given prior to initiation of the first PK study. All handling, dosing, and blood sampling of the animals were performed by trained and skilled staff. Before the studies, the dogs were fasted overnight and from 0 to 4 hours after dosing. The dogs were restricted to water 1 hour before dosing until 4 hours after dosing, but otherwise had ad libitum access to water during the whole period.
The compositions were administered by a single oral dosing to the dogs in groups of 6-8 dogs. […] The mouth was then closed, and 10 mL of tap water was given by syringe or gavage to facilitate swallowing of the tablet.
One blood sample was drawn before dosing, and additional samples were drawn at predefined time points after dosing for up to 240 hours, such as up to 10 hours, to adequately cover the full plasma concentration-time absorption profile of the test substance. For each blood sample time point, approximately 0.8 mL of whole blood was collected in a 1.5 mL EDTA-coated tube, which was gently turned to mix the sample with EDTA. Blood samples were collected in EDTA buffer (8 mM) and then centrifuged at 4° C. 2000 g for 10 minutes. Plasma was pipetted into Micronic tubes on dry ice, and kept at −20° C. or lower until analysis. Blood samples were taken as appropriate, for example from a venflon in the cephalic vein in the front leg for the first 2 hours and then with syringe from the jugular vein for the rest of the time points. The first few drops were allowed to drain from the venflon to avoid heparin saline from the venflon in the sample.
All blood samples were collected into test tubes containing EDTA for stabilisation and kept on ice until centrifugation. Plasma was separated from whole blood by centrifugation and the plasma was stored at −20° C. or lower until analysis.
The plasma was analysed for test substance using LC-MS (Liquid Chromatography-Mass Spectrometry) as known to the person skilled in the art. […] RP-HPLC separation was achieved using a linear gradient of 1:1 acetonitrile/methanol in 1% aqueous formic acid using either: a Phenomenex Onyx Monolithic C18 column (50×2.0 mm) and a flow rate of 0.8 mL/min at 30° C.; or an Agilent Poroshell 120 SB-C18 column (50×2.1 mm, 2.7 μm) at a flow rate of 0.4 mL/min at 60° C. The mass spectrometer was operated in either positive ionization SIM mode or positive ionization PRM mode.
For each individual animal, a plasma concentration-time profile was analysed by a non-compartmental model in Pharsight Phoenix WinNonLin ver.

[1] = oral tablet, SNAC 100 mg, test substance 3 mg, Beagle dogs, arithmetic mean

Row | SMILES | AUC/Dose (dog, in vivo, po) [kg·h/L] | Cmax/Dose (dog, in vivo, po) [kg/L] | other results
1 | CC[C@H](C)[C@H](NC(=O)[C@H](Cc1ccccc1)NC(=O)[C@H](CCC(=O)O)NC(=O)[C@H](CCCNC(=N)N)NC(=O)[C@H](C)NC(=O)[C@H](C)NC(=O)[C@H](CCC(N)=O)NC(=O)[C@H](CCCCNC(=O)[C@@H](N)CCCCNC(=O)[C@@H](N)CCCCNC(=O)CC[C@H](NC(=O)CCCCCCCCCCCCCCCCC(=O)O)C(=O)O)NC(=O)[C@H](CCC(=O)O)NC(=O)[C@H](CC(C)C)NC(=O)[C@H](Cc1ccc(O)cc1)NC(=O)[C@@H](NC(=O)[C@H](CO)NC(=O)[C@H](Cc1ccc(O)cc1)NC(=O)[C@H](CC(=O)O)NC(=O)[C@H](CO)NC(=O)[C@@H](NC(=O)[C@H](Cc1ccccc1)NC(=O)[C@@H](NC(=O)CNC(=O)[C@H](CCC(=O)O)NC(=O)C(C)(C)NC(=O)[C@@H](N)Cc1ccc(O)cc1)[C@@H](C)O)[C@@H](C)O)[C@@H](C)CC)C(=O)N[C@@H](CC(N)=O)C(=O)N[C@@H](Cc1c[nH]c2ccccc12)C(=O)N[C@@H](CC(C)C)C(=O)N[C@@H](CC(C)C)C(=O)N[C@@H](C)C(=O)NCC(=O)NCC(=O)N1CCC[C@H]1C(=O)N[C@@H](CO)C(=O)N[C@@H](CO)C(=O)NCC(=O)N[C@@H](C)C(=O)N1CCC[C@H]1C(=O)N1CCC[C@H]1C(=O)N1CCC[C@H]1C(=O)N[C@@H](CO)C(=O)O [Compound 11] (H-Y[Aib]EGTFTSDYSIYLEK([εLys-εLys-γGlu-C18 diacid])QAAREFINWLLAGGPSSGAPPPS-OH) | 7.1 | 0.19 | 
2 | CC[C@H](C)[C@H](NC(=O)[C@H](Cc1ccccc1)NC(=O)[C@H](CCC(=O)O)NC(=O)[C@H](CCCNC(=N)N)NC(=O)[C@H](C)NC(=O)[C@H](C)NC(=O)[C@H](CCC(N)=O)NC(=O)[C@H](CCCCNC(=O)COCCOCCNC(=O)COCCOCCNC(=O)CC[C@H](NC(=O)CCCCCCCCCCCCCCCCC(=O)O)C(=O)O)NC(=O)[C@H](CCC(=O)O)NC(=O)[C@H](CC(C)C)NC(=O)[C@H](Cc1ccc(O)cc1)NC(=O)[C@@H](NC(=O)[C@H](CO)NC(=O)[C@H](Cc1ccc(O)cc1)NC(=O)[C@H](CC(=O)O)NC(=O)[C@H](CO)NC(=O)[C@@H](NC(=O)[C@H](Cc1ccccc1)NC(=O)[C@@H](NC(=O)CNC(=O)[C@H](CCC(=O)O)NC(=O)C(C)(C)NC(=O)[C@@H](N)Cc1ccc(O)cc1)[C@@H](C)O)[C@@H](C)O)[C@@H](C)CC)C(=O)N[C@@H](CCC(=O)O)C(=O)N[C@@H](Cc1c[nH]c2ccccc12)C(=O)N[C@@H](CC(C)C)C(=O)N[C@@H](CC(C)C)C(=O)N[C@@H](C)C(=O)NCC(=O)NCC(=O)N1CCC[C@H]1C(=O)N[C@@H](CO)C(=O)N[C@@H](CO)C(=O)NCC(=O)N[C@@H](C)C(=O)N1CCC[C@H]1C(=O)N1CCC[C@H]1C(=O)N1CCC[C@H]1C(=O)N[C@@H](CO)C(=O)O [Compound 10] (H-Y[Aib]EGTFTSDYSIYLEK([AEEA-AEEA-γGlu-C18 diacid])QAAREFIEWLLAGGPSSGAPPPS-OH) | 8.4 | 0.20 | 
3 | CC[C@H](C)[C@H](NC(=O)[C@H](Cc1ccccc1)NC(=O)[C@H](CCC(=O)O)NC(=O)[C@H](CCCNC(=N)N)NC(=O)[C@H](C)NC(=O)[C@H](C)NC(=O)[C@H](CCC(N)=O)NC(=O)[C@H](CCCCNC(=O)[C@@H](N)CCCCNC(=O)[C@@H](N)CCCCNC(=O)CC[C@H](NC(=O)CCCCCCCCCCCCCCCCC(=O)O)C(=O)O)NC(=O)[C@H](CCC(=O)O)NC(=O)[C@H](CC(C)C)NC(=O)[C@H](CC(C)C)NC(=O)[C@@H](NC(=O)[C@H](CO)NC(=O)[C@H](Cc1ccc(O)cc1)NC(=O)[C@H](CC(=O)O)NC(=O)[C@H](CO)NC(=O)[C@@H](NC(=O)[C@H](Cc1ccccc1)NC(=O)[C@@H](NC(=O)CNC(=O)[C@H](CCC(=O)O)NC(=O)C(C)(C)NC(=O)[C@@H](N)Cc1ccc(O)cc1)[C@@H](C)O)[C@@H](C)O)[C@@H](C)CC)C(=O)N[C@@H](CC(N)=O)C(=O)N[C@@H](Cc1c[nH]c2ccccc12)C(=O)N[C@@H](CC(C)C)C(=O)N[C@@H](CC(C)C)C(=O)N[C@@H](C)C(=O)NCC(=O)NCC(=O)N1CCC[C@H]1C(=O)N[C@@H](CO)C(=O)N[C@@H](CO)C(=O)NCC(=O)N[C@@H](C)C(=O)N1CCC[C@H]1C(=O)N1CCC[C@H]1C(=O)N1CCC[C@H]1C(=O)N[C@@H](CO)C(=O)O [Compound 15] (H-Y[Aib]EGTFTSDYSILLEK([εLys-εLys-γGlu-C18 diacid])QAAREFINWLLAGGPSSGAPPPS-OH) |  |  | Tmax (dog, in vivo, po): 2.0 h; t1/2 (dog, in vivo, po): 46 h
4 | CC[C@H](C)[C@H](NC(=O)[C@H](Cc1ccccc1)NC(=O)[C@H](CCC(=O)O)NC(=O)[C@H](CCCNC(=N)N)NC(=O)[C@H](C)NC(=O)[C@H](C)NC(=O)[C@H](CCC(N)=O)NC(=O)[C@H](CCCCNC(=O)[C@@H](N)CCCCNC(=O)[C@@H](N)CCCCNC(=O)CC[C@H](NC(=O)CCCCCCCCCCCCCCCCC(=O)O)C(=O)O)NC(=O)[C@H](CCC(=O)O)NC(=O)[C@H](CC(C)C)NC(=O)[C@H](Cc1ccc(O)cc1)NC(=O)[C@@H](NC(=O)[C@H](CO)NC(=O)[C@H](Cc1ccc(O)cc1)NC(=O)[C@H](CC(=O)O)NC(=O)[C@H](CO)NC(=O)[C@@H](NC(=O)[C@H](Cc1ccccc1)NC(=O)[C@@H](NC(=O)CNC(=O)[C@H](CCC(=O)O)NC(=O)C(C)(C)NC(=O)[C@@H](N)Cc1ccc(O)cc1)[C@@H](C)O)[C@@H](C)O)[C@@H](C)CC)C(=O)N[C@@H](CCC(=O)O)C(=O)N[C@@H](Cc1c[nH]c2ccccc12)C(=O)N[C@@H](CC(C)C)C(=O)N[C@@H](CC(C)C)C(=O)N[C@@H](CCCNC(=N)N)C(=O)NCC(=O)NCC(=O)N1CCC[C@H]1C(=O)N[C@@H](CCC(=O)O)C(=O)N[C@@H](CO)C(=O)NCC(=O)N[C@@H](C)C(=O)N1CCC[C@H]1C(=O)N1CCC[C@H]1C(=O)N1CCC[C@H]1C(=O)N[C@@H](CO)C(=O)O [Compound 13] (H-Y[Aib]EGTFTSDYSIYLEK([εLys-εLys-γGlu-C18 diacid])QAAREFIEWLLRGGPESGAPPPS-OH) |  |  | AUC/Dose [1]: 14.8 kg·h/L; Cmax/Dose [1]: 0.29 kg/L
5 | CC[C@H](C)[C@H](NC(=O)[C@H](Cc1ccccc1)NC(=O)[C@H](CCC(=O)O)NC(=O)[C@H](CCCNC(=N)N)NC(=O)[C@H](C)NC(=O)[C@H](C)NC(=O)[C@H](CCC(N)=O)NC(=O)[C@H](CCCCNC(=O)[C@@H](N)CCCCNC(=O)[C@@H](N)CCCCNC(=O)CC[C@H](NC(=O)CCCCCCCCCCCCCCCCC(=O)O)C(=O)O)NC(=O)[C@H](CCC(=O)O)NC(=O)[C@H](CC(C)C)NC(=O)[C@H](Cc1ccc(O)cc1)NC(=O)[C@@H](NC(=O)[C@H](CO)NC(=O)[C@H](Cc1ccc(O)cc1)NC(=O)[C@H](CC(=O)O)NC(=O)[C@H](CO)NC(=O)[C@@H](NC(=O)[C@H](Cc1ccccc1)NC(=O)[C@@H](NC(=O)CNC(=O)[C@H](CCC(=O)O)NC(=O)C(C)(C)NC(=O)[C@@H](N)Cc1ccc(O)cc1)[C@@H](C)O)[C@@H](C)O)[C@@H](C)CC)C(=O)N[C@@H](CCC(=O)O)C(=O)N[C@@H](Cc1c[nH]c2ccccc12)C(=O)N[C@@H](CC(C)C)C(=O)N[C@@H](CC(C)C)C(=O)N[C@@H](C)C(=O)NCC(=O)NCC(=O)N1CCC[C@H]1C(=O)N[C@@H](CO)C(=O)N[C@@H](CO)C(=O)NCC(=O)N[C@@H](C)C(=O)N1CCC[C@H]1C(=O)N1CCC[C@H]1C(=O)N1CCC[C@H]1C(=O)N[C@@H](CO)C(=O)O [Compound 9] (H-Y[Aib]EGTFTSDYSIYLEK([εLys-εLys-γGlu-C18 diacid])QAAREFIEWLLAGGPSSGAPPPS-OH) | 12.1 | 0.24 | 
